Test results taken from US20190117653A1, “SYSTEMS AND METHODS FOR TREATING BACTERIAL INFECTION” (priority 2016, published 2019).
Values after ≈ are worked out from the molar mass of the structure shown. Structures can show the parent of a compound that is named as a salt. Where two headings read alike, the source gives them in different places.

How the values were obtained:
[1] = pH value of a 1% solution in water; assay type: physicochemical
Source text: The molecular formulae for iclaprim and iclaprim mesylate are […] (base) and C20H26N4O6S (mesylate), and their relative molecular masses are 354.41 (base) or 450.52 (mesylate). […] One skilled in the art can readily obtain iclaprim or iclaprim mesylate, and synthesis of these compounds is described in U.S. Pat. No. 5,773,446, the entire disclosure of which is herein incorporated by reference.

mouse = assay: acute IV toxicity in the mouse (lowest lethal dose); assay type: in vivo
male and female rats = settings: both, rat, in vivo, 4 weeks
Protocol: A repeated-dose, 4-week toxicity study was conducted in male and female rats, where single, daily IV bolus doses up to 60 mg/kg were given. […] A 28-day toxicity study was also conducted in male and female marmosets, where iclaprim mesylate was infused intravenously over a 20-minute interval.

female mini-pigs = settings: minipig, in vivo
[2] = test system: nosocomial pneumonia suspected or confirmed to be caused by Gram-positive pathogens; assay: Phase 2 study in nosocomial pneumonia, iclaprim versus vancomycin; assay type: in vivo, human
Source text: This MIC effect of surfactant on daptomycin activity has been reported to be mediated by binding of surfactant components to specific structures present on antibiotics, such as the lipophilic side-chain of daptomycin (Silverman et al., 2005). […] Collectively, the current in vitro study and a previous Phase 2 study support that iclaprim could be a potential treatment for pneumonia, including nosocomial pneumonia caused by susceptible and multidrug resistant Gram-positive bacteria.

S. aureus strain AH1252 = assay: neutropenic rat lung infection model; assay type: in vivo, Staphylococcus aureus
Protocol: S. aureus strain AH1252, a thymidine knockout of the MRSA wild type AW6 strain, was utilized for this study. The bacterial strain was diluted in a 2% alginate buffer, which was added dropwise in a ratio of 1:5 into […] to form alginate beads. The alginate beads reduce the efficacy of bacterial clearance similar to that seen in the cystic fibrosis population. A 5.25×10^4 bacterial inoculum was administered to groups of 9 rats, intratracheally, with prepared alginate bacteria suspensions, under isoflurane anesthesia. […] Twelve hours after the last treatment, rats were euthanized and lungs collected for CFU determination.

E. faecalis ATCC 29212 = assay: MIC with/without bovine pulmonary surfactant; assay type: cell-based; settings: Enterococcus faecalis, ATCC29212, 2.5% v/v BPS, read-out: MIC, Resazurin: +BPS
Protocol: (§1) Antibacterial susceptibility testing was measured by JMI Labs (North Liberty, Iowa, USA). […] These clinical isolates were collected from US (n=4), Mexico (n=2), and Italy (n=1). Susceptibility testing was performed by broth microdilution in accordance with the Clinical and Laboratory and Standards Institute (CLSI) guidelines M07-A10 (2015) and the standard operating procedures at JMI laboratories. Minimum inhibitory concentrations (MICS) were based on CLSI criteria (2015). There are no published breakpoints for iclaprim. E. coli, K. pneumoniae, M. catarrhalis, E. faecalis, and S. aureus were tested in cation-adjusted Mueller-Hinton broth (CA-MHB). S. pneumoniae were tested in CA-MHB supplemented with 2.5-5% lysed horse blood, and H. influenza were tested in Haemophilus test medium. Quality control and interpretation of results were performed in accordance with CLSI M100-S26 (2016) methods. QC ranges for iclaprim were those approved by CLSI and published in M100-S26 (2016). Iclaprim and comparator antibiotic MIC results were within the CLSI published ranges against E. coli ATCC 25922, E. faecalis ATCC 29212, E. faecalis ATCC 33186, H. influenzae ATCC 49247, K. pneumoniae ATCC 700603 (ESBL phenotype), S. aureus ATCC 29213, and S. pneumoniae ATCC 49619. Isolates were tested with MIC panels (ThermoFisher Scientific, Cleveland, Ohio, USA) of comparator antibiotics (daptomycin and levofloxacin).
(§2) Because bovine pulmonary surfactant can introduce cloudiness to the MIC testing media, antimicrobial growth inhibition was also evaluated using the colorimetric metabolic indicator resazurin (Camlab Ltd., Cambridge, UK). […] S. pneumoniae panels were omitted from resazurin analysis because the color change was obscured by the lysed horse blood present in the test medium. Growth inhibition was then evaluated as a visible color change from blue (no growth) to pink (robust growth) and recorded as a MIC1z value.
(§3) The MICs of iclaprim, levofloxacin, and daptomycin were determined against Gram-positive and Gram-negative isolates.
(§4) A new vial of bovine pulmonary surfactant (BPS; Survanta®; Abbott Laboratories, Columbus, Ohio) was utilized for each independent experiment. Each vial was mixed thoroughly and a 100 μL aliquot was spread on an agar plate, which was incubated overnight to confirm sterility. […] The concentration of surfactant was expressed in terms of percent volume of Survanta® suspension, which consisted of phospholipid (25 mg/mL) and surfactant proteins (<1 mg/mL) in 0.9% sodium chloride solution (Goerke, 1998). MICs of daptomycin were determined in CAMHB with the Ca^2+ content adjusted to 50 mg/L.

E. faecalis ATCC 33186 = assay: MIC with/without bovine pulmonary surfactant; assay type: cell-based; settings: Enterococcus faecalis, ATCC33186, 2.5% v/v BPS, read-out: MIC, Resazurin: +BPS
Protocol: as §1, §2, §3, §4

[3] = test system: M. catarrhalis Clinical Isolate 893806; assay: MIC with/without bovine pulmonary surfactant; assay type: cell-based; settings: Moraxella catarrhalis, 2.5% v/v BPS, read-out: MIC, Resazurin: +BPS
Protocol: as §1, §2, §3, §4

[4] = test system: M. catarrhalis Clinical Isolate 893807; assay: MIC with/without bovine pulmonary surfactant; assay type: cell-based; settings: Moraxella catarrhalis, 2.5% v/v BPS, read-out: MIC, Resazurin: +BPS
Protocol: as §1, §2, §3, §4

S. aureus ATCC 29213 = assay: MIC with/without bovine pulmonary surfactant; assay type: cell-based; settings: Staphylococcus aureus
Protocol: as §1, §2, §3, §4

[5] = test system: S. aureus Clinical Isolate 825189; assay: MIC with/without bovine pulmonary surfactant; assay type: cell-based; settings: Staphylococcus aureus
Protocol: as §1, §2, §3, §4

E. coli ATCC 25922 = assay: MIC with/without bovine pulmonary surfactant; assay type: cell-based; settings: Escherichia coli
Protocol: as §1, §2, §3, §4

[6] = ATCC29213, 2.5% v/v BPS, read-out: MIC, Resazurin: +BPS
[7] = ATCC29213, no BPS, read-out: MIC, CLSI
[8] = ATCC29213, no BPS, read-out: MIC, Resazurin
[9] = 2.5% v/v BPS, read-out: MIC, Resazurin: +BPS
[10] = no BPS, read-out: MIC, Resazurin

## COc1cc(Cc2cnc(N)nc2N)c2c(c1OC)OC(C1CC1)C=C2 (racemic) [iclaprim mesylate, 5-[(2RS)-2-cyclopropyl-7,8-dimethoxy-2Hchromen-5-ylmethyl] pyrimidine-2,4-diamine methanesulfonate]
[1]
  pH value: 4.2
mouse
  HED of lowest lethal IV dose: 6.1 mg/kg
  lowest lethal IV dose: 75 mg/kg
Male and female rats
  HED of NOAEL: 3.9 mg/kg/day
  dosage with histopathological changes at the injection sites: ≥ 10 mg/kg/day
Female mini-pigs
  HED of maximum tolerated single IV dose: 14.6 mg/kg
  maximum tolerated single IV dose: 20 mg/kg

## CN[C@H](CC(C)C)C(=O)N[C@H]1C(=O)N[C@@H](CC(N)=O)C(=O)N[C@H]2C(=O)N[C@H]3C(=O)N[C@H](C(=O)N[C@H](C(=O)O)c4cc(O)cc(O)c4-c4cc3ccc4O)[C@H](O)c3ccc(c(Cl)c3)Oc3cc2cc(c3O[C@@H]2O[C@H](CO)[C@@H](O)[C@H](O)[C@H]2O[C@H]2C[C@](C)(N)[C@H](O)[C@H](C)O2)Oc2ccc(cc2Cl)[C@H]1O [Vancomycin, vancomycin, reference compound]
[2]; vancomycin 1 g IV q12h, test of cure visit (12 of 23)
  cure rate, intent-to-treat population: 52.2%
[2]; vancomycin (5 of 23)
  death rate within 28 days of the start of treatment: 21.7%
S. aureus strain AH1252; 50 mg/kg SC/BID
  72 hour lungs log10CFU/Lung (CFU/gram of lung): 5.30
  Change in CFUs from 2 hr. infection controls: 2.18 log 10 CFU
  Change in CFUs from 72 hr. infection controls: −3.38 log 10 CFU
S. aureus strain AH1252; 50 mg/kg SC/BID (100 mg/kg/day) 3 days
  Survival >60 hrs: 8/9
S. aureus strain AH1252; vancomycin 50 mg/kg SC/BID
  CFU reduction from the 72 hour infection controls: 3.38 log 10 CFU

## CCCCCCCCCC(=O)N[C@@H](Cc1c[nH]c2ccccc12)C(=O)N[C@H](CC(N)=O)C(=O)N[C@@H](CC(=O)O)C(=O)N[C@@H]1C(=O)NCC(=O)N[C@@H](CCCN)C(=O)N[C@@H](CC(=O)O)C(=O)N[C@H](C)C(=O)N[C@@H](CC(=O)O)C(=O)NCC(=O)N[C@H](CO)C(=O)N[C@@H]([C@H](C)CC(=O)O)C(=O)N[C@@H](CC(=O)c2ccccc2N)C(=O)O[C@@H]1C [daptomycin]
E. faecalis ATCC 29212
  MIC: > 16 µg/mL
E. faecalis ATCC 33186
  MIC: > 16 µg/mL
[3]
  MIC: > 16 µg/mL
[4]
  MIC: > 16 µg/mL
S. aureus ATCC 29213; [6]
  MIC: > 16 µg/mL
S. aureus ATCC 29213; [7]
  MIC: 0.5 µg/mL (≈ 0.309 µM)
S. aureus ATCC 29213; [8]
  MIC: 0.5 µg/mL (≈ 0.309 µM)
[5]; [9]
  MIC: > 16 µg/mL
[5]; [10]
  MIC: 0.25 µg/mL (≈ 0.154 µM)

## C[C@H]1COc2c(N3CCN(C)CC3)c(F)cc3c(=O)c(C(=O)O)cn1c23 [levofloxacin]
E. coli ATCC 25922; ATCC25922, 2.5% v/v BPS, read-out: MIC, CLSI: +BPS
  MIC: 0.03 µg/mL (≈ 0.083 µM)
E. coli ATCC 25922; ATCC25922, 2.5% v/v BPS, read-out: MIC, Resazurin: +BPS
  MIC: 0.03 µg/mL (≈ 0.083 µM)
E. coli ATCC 25922; ATCC25922, no BPS, read-out: MIC, CLSI
  MIC: 0.015 µg/mL (≈ 0.0415 µM)
E. coli ATCC 25922; ATCC25922, no BPS, read-out: MIC, Resazurin
  MIC: 0.015 µg/mL (≈ 0.0415 µM)
E. faecalis ATCC 33186
  MIC: 2 µg/mL (≈ 5.53 µM)
S. aureus ATCC 29213; ATCC29213, 2.5% v/v BPS, read-out: MIC, CLSI: +BPS
  MIC: 0.12 µg/mL (≈ 0.332 µM)
S. aureus ATCC 29213; [6]
  MIC: 0.12 µg/mL (≈ 0.332 µM)
S. aureus ATCC 29213; [7]
  MIC: 0.25 µg/mL (≈ 0.692 µM)
S. aureus ATCC 29213; [8]
  MIC: 0.25 µg/mL (≈ 0.692 µM)
[5]; 2.5% v/v BPS, read-out: MIC, CLSI: +BPS
  MIC: 0.25 µg/mL (≈ 0.692 µM)
[5]; [9]
  MIC: 0.25 µg/mL (≈ 0.692 µM)
[5]; no BPS, read-out: MIC, CLSI
  MIC: 0.25 µg/mL (≈ 0.692 µM)
[5]; [10]
  MIC: 0.25 µg/mL (≈ 0.692 µM)
